Source: patent US8269024B2, “Compounds and methods for modulating communication and virulence in quorum sensing bacteria” (priority 2005, dated 2012)
pIC50: −log10 of the molar value. Like-named read-outs stand apart in the source and are kept apart here. Marks after values point to notes of the source that are not given here.

Experiments:
[1] = biological target: T1, TraR (Agrobacterium tumefaciens, UniProt P33905); assay: Agrobacterium tumefaciens reporter gene assay, WCF47(pCF372), β-galactosidase (Miller) readout; assay type: cell-based; settings: for A. tumefaciens β-galactosidase activity [Miller units] 10^4 nM: antagonism, compound at 10^4 nM screened against 100 nM 8b, strain WCF47(pCF372); for activity against TraR in A. tumefaciens: antagonism screen in presence of native ligand 8b; for activity relative to previously reported antagonists 7g, 8f and 9: controls at 10 μM
T1 construct: Both of these reporter strains lack their native AHL synthases, yet retain active LuxR-type receptors (LasR and TraR proteins, respectively); endogenous in cells; host or cells: A. tumefaciens WCF47(pCF372)
Text: (§1) The AHL library constructed by the schema described above, was screened in two bacterial reporter strains for antagonism of quorum sensing: 1) P. aeruginosa PAO-JP2(plasI-LVAgfp), (De Kievit, T. R.; Gillis, R.; Marx, S.; Brown, C.; Iglewski, B. H. Appl. Environ. Microbiol. 2001, 67, 1865-1873) and 2) A. tumefaciens WCF47 (pCF372). Examination of these two strains was valuable for two reasons: 1) the direct clinical relevance of P. aeruginosa, and 2), the extensive body of biochemical and structural data for TraR in A. tumefaciens. Both of these reporter strains lack their native AHL synthases, yet retain active LuxR-type receptors (LasR and TraR proteins, respectively); exogenous ligand is required for receptor activation, which can be measured by fluorescence (green fluorescent protein (GFP) for LasR) or absorbance (via β-galactosidase activity for TraR) measurements.
An appropriate amount of concentrated AHL stock solution, to give a final concentration of 100 nM, was added to an empty culture tube, and the solvent was allowed to evaporate. An overnight culture of A. tumefaciens WCF47(pCF372) was diluted to an OD600 (optical density) of 0.1 in fresh AB minimal medium containing 400 μg/mL octopine and 50 μg/mL streptomycin. A 1 mL portion of the diluted culture was added to the tubes containing AHLs. Tubes were grown at 28° C. for 12-16 h in a rotary shaking incubator (200 rpm).
The cultures were then assayed for β-galactosidase activity following the Miller assay method. Briefly, 100 μL aliquots of bacteria from each of the tubes were added to wells of a polystyrene 96-well plate and the OD600 of each well was recorded. Next, […] aliquots from each well were transferred to a solvent resistant 96-well plate containing 200 μL Z buffer, 8 μL CHCl3 and 4 μL, 0.1% aq. sodium dodecylsulfate (SDS). This suspension was mixed via repetitive pipetting, after which the CHCl3 was allowed to settle. A 100 μL aliquot from each well was transferred to a fresh polystyrene 96-well plate, and 20 μL of substrate, o-nitrophenyl-β-D-galactopyranoside (ONPG, […] in phosphate buffer), was added at time zero. After the development of appropriate yellow color (ca. 15-35 minutes), the reaction was terminated by the addition of 50 μL of 1 M Na2CO3. Absorbance at 420 nm and 550 nm was measured for each well using a plate reader, and Miller units were calculated according to standard methods.
Similar methods were used for antagonism assays, except the concentration of AHL analog used was 10^4 nM, and OOHL (8b) stock solution was added to each tube such that its concentration was 100 nM (FIG. 30). […] All assays were performed in triplicate.

[2] = biological target: T2, LasR (Pseudomonas aeruginosa, UniProt P25084); assay: Pseudomonas aeruginosa reporter gene assay, PAO-JP2(plasI-LVAgfp), GFP fluorescence readout; assay type: cell-based; settings: for P. aeruginosa Relative fluorescence [%] 12.5 μM / P. aeruginosa Relative fluorescence [%] 400 μM: antagonism, relative to agonism by 8d at 1 μM set to 100%; for P. aeruginosa Relative fluorescence [%] 12.5 μM: compound at 12.5 μM screened against 1 μM 8d; for P. aeruginosa Relative fluorescence [%] 400 μM: compound at 400 μM screened against 1 μM 8d; for antagonism against LasR in P. aeruginosa: antagonism screen in presence of native ligand 8d; for activity relative to the three controls (7g, 8f, 9): at 400 μM
T2 construct: Both of these reporter strains lack their native AHL synthases, yet retain active LuxR-type receptors (LasR and TraR proteins, respectively); endogenous in cells; host or cells: P. aeruginosa PAO-JP2(plasI-LVAgfp)
Text: as §1
An appropriate amount of concentrated stock solution, to give a final concentration of 1 μM, was added to a polypropylene 96-well plate, and the solvent was allowed to evaporate. An overnight culture of P. aeruginosa PAO-JP2(plasI-LVAgfp) was diluted to an OD600 of 0.1 in fresh LB medium containing 200 μg/mL carbenicillin. 200 μL of the diluted culture was added to each well of the plate and incubated at 37° C. for 6 h in a rotary shaking incubator (200 rpm). Cultures were transferred to a polystyrene 96-well plate, GFP expression was measured using a plate reader, and this value was normalized to cell density. Similar methods were used for antagonism assays, illustrated in FIG. […] All assays were performed in triplicate.

[3] = biological target: T1, TraR; assay: Agrobacterium tumefaciens reporter gene assay, WCF47(pCF372), β-galactosidase (Miller) readout; assay type: cell-based; settings: for A. tumefaciens β-galactosidase activity [Miller units] 100 nM: antagonism, compound at 100 nM screened against 100 nM 8b, strain WCF47(pCF372)
[4] = system: P. aeruginosa (PAO1(pLVAgfp)) biofilm formation; assay: Static biofilm assay, scanning laser confocal microscopy; assay type: cell-based, Pseudomonas aeruginosa; settings: 48 h; for P. aeruginosa biofilm formation: 50 μM ligand, glass slides; for dose dependence of biofilm disruption: 50, 25 and 12.5 μM
Method: Standard static biofilm assays were performed using a P. aeruginosa (PAO1(pLVAgfp)) strain that constitutively produces GFP to facilitate visualization. Biofilms were grown in the absence of ligand (FIG. 34A) and in the presence of 50 μM synthetic ligands 7h (FIG. 34B) or 7o (FIG. 34C), for 48 h and visualized using scanning laser confocal microscopy.
Standard static biofilm assays were performed using a P. aeruginosa PAO1(pTdK-GFP). In brief, an overnight culture was diluted to an OD600 of 0.1 in fresh M9 medium containing 200 μg/mL carbenicillin. This diluted culture was added to a tube containing 50 μM antagonist. Biofilms were grown in the absence of ligand, FIG. 35A; in the presence synthetic ligand 7h, FIG. 35B; and in the presence of synthetic ligand 7o, FIG. 35C (both at 50 μM) for 48 h and visualized using scanning laser confocal microscopy. A sterilized glass coverslip was added to each tube, and the culture was incubated at 37° C. for 48 h without shaking. Coverslips were removed, washed with phosphate buffered saline, and examined using scanning laser confocal microscopy methods. Top-down Z series were collected over a distance of ca. 100 μm. Images in FIGS. 35-37 are representative of several experiments performed on separate days.

T1 sequence (P33905 whole entry): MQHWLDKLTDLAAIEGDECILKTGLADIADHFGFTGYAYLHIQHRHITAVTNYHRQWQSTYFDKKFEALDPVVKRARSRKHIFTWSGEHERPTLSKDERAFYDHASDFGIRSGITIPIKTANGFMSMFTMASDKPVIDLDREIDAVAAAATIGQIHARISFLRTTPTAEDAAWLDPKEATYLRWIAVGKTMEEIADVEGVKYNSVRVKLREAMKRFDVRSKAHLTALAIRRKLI
T2 sequence (P25084 whole entry): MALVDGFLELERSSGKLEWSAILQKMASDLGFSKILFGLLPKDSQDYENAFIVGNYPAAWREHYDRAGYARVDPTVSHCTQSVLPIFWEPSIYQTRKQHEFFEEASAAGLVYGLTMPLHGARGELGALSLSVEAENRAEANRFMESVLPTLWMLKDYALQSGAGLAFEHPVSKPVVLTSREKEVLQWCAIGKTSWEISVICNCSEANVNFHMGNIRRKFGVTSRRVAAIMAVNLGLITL

Row | SMILES | pIC50 [1] | A. tumefaciens β-galactosidase activity [Miller units] 10^4 nM [1] | pIC50 [2] | P. aeruginosa Relative fluorescence [%] 12.5 μM [2] | P. aeruginosa Relative fluorescence [%] 400 μM [2] | A. tumefaciens β-galactosidase activity [Miller units] 100 nM [3] | activity against TraR in A. tumefaciens [1] | activity relative to previously reported antagonists 7g, 8f and 9 [1] | antagonism against LasR in P. aeruginosa [2] | activity relative to the three controls (7g, 8f, 9) [2] | inhibition (LasR antagonism) ([2]; at a 12.5:1 ratio with native ligand 8d) | P. aeruginosa biofilm formation [4] | dose dependence of biofilm disruption [4] | pIC50 ([1]; screened against 100 nM 8b, sigmoidal dose-response curve fit, read-out: A. tumefaciens IC50) | pIC50 ([2]; screened against 1 μM 8d, sigmoidal dose-response curve fit, read-out: P. aeruginosa IC50) | inhibition at 0.1 µM ([3]; read-out: inhibition (TraR antagonism)) | A. tumefaciens β-galactosidase activity [Miller units], control agonism activity ([1]; Control: agonism activity at 100 nM 8b alone) | P. aeruginosa Relative fluorescence [%], control relative agonism activity ([2]; Control: relative agonism activity at 1 μM 8d (not at 12.5 μM))
1 | CCCCCCC(=O)N[C@H]1CCOC1=O [Compound 7g, N-heptanoyl-L-homoserine lactone, reference compound] | 6.89 | 34 ± 6 Miller units | 4.29 | 78 ± 9% | 29 ± 9% | 226 ± 30 Miller units | – | – | – | – | – | – | – | – | – | – | – | –
2 | O=C(CCCc1c[nH]c2ccccc12)N[C@@H]1CCOC1=O [Compound 7h, N-(indole-3-butanoyl)-L-homoserine lactone] | 5.96 | 150 ± 14 Miller units | 4.83 | 52 ± 8% | 14 ± 4% | 245 ± 14 Miller units | significant activity | one to two orders of magnitude more active | identified as antagonists | twice as active | 50% | strongly inhibit | dose-dependent disruption | – | – | – | – | –
3 | O=C(CC1C=CCC1)N[C@H]1CCOC1=O (stereo partly drawn) [Compound 7k, N-(2-cyclopentene-1-acetanoyl)-L-homoserine lactone] | 6.00 | 19 ± 8 Miller units | 4.48 | 72 ± 8% | 24 ± 7% | 306 ± 8 Miller units | significant activity | one to two orders of magnitude more active | identified as antagonists | – | – | – | – | – | – | – | – | –
4 | O=C(Cc1ccc(Br)cc1)N[C@H]1CCOC1=O [Compound 7o, N-(4-bromophenylacetanoyl)-L-homoserine lactone] | – | 0 ± 4 Miller units | – | 58 ± 21% | 14 ± 5% | 193 ± 9 Miller units | significant activity | one to two orders of magnitude more active | identified as antagonists | twice as active | – | strongly inhibit | dose-dependent disruption | 6.60 | 4.79 | 50% | – | –
5 | CCCCCC(=O)CC(=O)N[C@@H]1CCOC1=O [Compound 8b, N-(3-oxo-octanoyl)-L-homoserine lactone, reference compound] | – | – | – | – | – | – | – | – | – | – | – | – | – | – | – | – | 385 ± 35^g Miller units | –
6 | CCCCCCCCCC(=O)CC(=O)N[C@@H]1CCOC1=O [Compound 8d, N-(3-oxo-dodecanoyl)-L-homoserine lactone, reference compound] | – | – | – | – | – | – | – | – | – | – | – | – | – | – | – | – | – | 100 ± 8^h %
7 | O=C(CC(=O)N[C@H]1CCOC1=O)Cc1ccccc1 [Compound 8f, N-(3-oxo-4-phenylbutanoyl)-L-homoserine lactone, reference compound] | 6.23 | 51 ± 22 Miller units | 4.27 | 82 ± 18% | 27 ± 9% | 310 ± 6 Miller units | – | – | – | – | – | – | – | – | – | – | – | –
8 | CCCCCCCCCC(=O)CC(=O)Nc1ccccc1O [Compound 9, reference compound] | 5.33 | 186 ± 15 Miller units | 4.43 | 63 ± 8% | 23 ± 7% | 396 ± 27 Miller units | – | – | – | – | – | – | – | – | – | – | – | –
